According to PubChem BioAssay AID2060495 (Molecular Pharmacology Branch, DTP, NCI, 2025):

System: 521955-158-R2-J5-PDC complex spheroid viability
Assay: Anticancer human tumor 521955-158-R2-J5-PDC patient-derived pancreatic carcinoma cell line growth inhibition [GQUAD]
Conditions: for IC50: curve of first compound; for viability, T/C: stronger effect = lower value
Procedure, shortened: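 Tumor cells were grown as complex spheroids with HUVEC endothelial cells and mesenchymal stem cells as stroma. G-quadruplex stabilizers were combined with targeted agents over half-log dilutions from near the clinical Cmax, or from 10 microM.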

[1] = second compound 0.0316 µM, first compound 0.000999 µM
[2] = second compound 0.0316 µM, first compound 0.00316 µM
[3] = second compound 0.0316 µM, first compound 0.00999 µM
[4] = second compound 0.0316 µM, first compound 0.0316 µM
[5] = second compound 0.0316 µM, first compound 0.0999 µM
[6] = second compound 0.0316 µM, first compound 0.316 µM
[7] = second compound 0.1 µM, first compound 0.000999 µM
[8] = second compound 0.1 µM, first compound 0.00316 µM
[9] = second compound 0.1 µM, first compound 0.00999 µM
[10] = second compound 0.1 µM, first compound 0.0316 µM
[11] = second compound 0.1 µM, first compound 0.0999 µM
[12] = second compound 0.1 µM, first compound 0.316 µM
[13] = second compound 0.316 µM, first compound 0.000999 µM
[14] = second compound 0.316 µM, first compound 0.00316 µM
[15] = second compound 0.316 µM, first compound 0.00999 µM
[16] = second compound 0.316 µM, first compound 0.0316 µM
[17] = second compound 0.316 µM, first compound 0.0999 µM
[18] = second compound 0.316 µM, first compound 0.316 µM
[19] = second compound 1 µM, first compound 0.000999 µM
[20] = second compound 1 µM, first compound 0.00316 µM
[21] = second compound 1 µM, first compound 0.00999 µM
[22] = second compound 1 µM, first compound 0.0316 µM
[23] = second compound 1 µM, first compound 0.0999 µM
[24] = second compound 1 µM, first compound 0.316 µM
[25] = second compound 3.16 µM, first compound 0.000999 µM
[26] = second compound 3.16 µM, first compound 0.00316 µM
[27] = second compound 3.16 µM, first compound 0.00999 µM
[28] = second compound 3.16 µM, first compound 0.0316 µM
[29] = second compound 3.16 µM, first compound 0.0999 µM
[30] = second compound 3.16 µM, first compound 0.316 µM
[31] = second compound 10 µM, first compound 0.000999 µM
[32] = second compound 10 µM, first compound 0.00316 µM
[33] = second compound 10 µM, first compound 0.00999 µM
[34] = second compound 10 µM, first compound 0.0316 µM
[35] = second compound 10 µM, first compound 0.0999 µM
[36] = second compound 10 µM, first compound 0.316 µM
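Further: spheroids exposed to agents for one week before reading.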
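Wherever viability, T/C is given: 100% = DMSO vehicle control viability.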

Compound: CCc1c2c(nc3ccc(O)cc13)-c1cc3c(c(=O)n1C2)COC(=O)[C@]3(O)CC + Cc1[nH]c2ccc(F)cc2c1-c1nc2c3cccnc3c3ncccc3c2[nH]1
- IC50 (second compound 0.0316 µM): 1.44 nM
- IC50 (second compound 0.1 µM): 1.57 nM
- IC50 (second compound 0.316 µM): 1.52 nM
- IC50 (second compound 1 µM): 1.48 nM
- IC50 (second compound 3.16 µM): 1.81 nM
- IC50 (second compound 10 µM): 1.61 nM
- viability, T/C [1]: 66.5%
- viability, T/C [2]: 14.4%
- viability, T/C [3]: 8.08%
- viability, T/C [4]: 6.13%
- viability, T/C [5]: 5.29%
- viability, T/C [6]: 2.46%
- viability, T/C [7]: 73.5%
- viability, T/C [8]: 13.8%
- viability, T/C [9]: 8.38%
- viability, T/C [10]: 6.85%
- viability, T/C [11]: 5.08%
- viability, T/C [12]: 3.05%
- viability, T/C [13]: 70.8%
- viability, T/C [14]: 13.3%
- viability, T/C [15]: 7.87%
- viability, T/C [16]: 5.41%
- viability, T/C [17]: 5.92%
- viability, T/C [18]: 2.25%
- viability, T/C [19]: 69.9%
- viability, T/C [20]: 11.7%
- viability, T/C [21]: 7.26%
- viability, T/C [22]: 5.78%
- viability, T/C [23]: 5.91%
- viability, T/C [24]: 1.75%
- viability, T/C [25]: 83.5%
- viability, T/C [26]: 18.2%
- viability, T/C [27]: 8.66%
- viability, T/C [28]: 7.44%
- viability, T/C [29]: 3.96%
- viability, T/C [30]: 2.23%
- viability, T/C [31]: 72.8%
- viability, T/C [32]: 16.9%
- viability, T/C [33]: 11.9%
- viability, T/C [34]: 8.45%
- viability, T/C [35]: 5.37%
- viability, T/C [36]: 2.72%

Compound: Cc1[nH]c2ccccc2c1CCNCc1ccc(/C=C/C(=O)NO)cc1 + Cc1cnc(CNC(=O)c2c(=O)c3ccc(N4CCCN(C)CC4)nc3n3c2sc2ccccc23)cn1
- IC50 (second compound 0.0316 µM): 71.3 nM
- IC50 (second compound 0.1 µM): 35.1 nM
- IC50 (second compound 0.316 µM): < 0.999 nM
- IC50 (second compound 1 µM): < 0.999 nM
- IC50 (second compound 3.16 µM): < 0.999 nM
- IC50 (second compound 10 µM): < 0.999 nM
- viability, T/C [1]: 76.2%
- viability, T/C [2]: 66.1%
- viability, T/C [3]: 92.3%
- viability, T/C [4]: 75.6%
- viability, T/C [5]: 39.2%
- viability, T/C [6]: 5.94%
- viability, T/C [7]: 64.7%
- viability, T/C [8]: 57.7%
- viability, T/C [9]: 57.1%
- viability, T/C [10]: 54%
- viability, T/C [11]: 33.2%
- viability, T/C [12]: 2.12%
- viability, T/C [13]: 26.8%
- viability, T/C [14]: 31.2%
- viability, T/C [15]: 34%
- viability, T/C [16]: 37.1%
- viability, T/C [17]: 26.6%
- viability, T/C [18]: 1.88%
- viability, T/C [19]: 16.8%
- viability, T/C [20]: 21.2%
- viability, T/C [21]: 18.5%
- viability, T/C [22]: 20.1%
- viability, T/C [23]: 18.6%
- viability, T/C [24]: 0.1%
- viability, T/C [25]: 12.1%
- viability, T/C [26]: 14.4%
- viability, T/C [27]: 14.7%
- viability, T/C [28]: 13.9%
- viability, T/C [29]: 6.38%
- viability, T/C [30]: 0.11%
- viability, T/C [31]: 9.65%
- viability, T/C [32]: 11.8%
- viability, T/C [33]: 14.8%
- viability, T/C [34]: 13.8%
- viability, T/C [35]: 5.03%
- viability, T/C [36]: 0.18%
